From ChEMBL document CHEMBL4393714, “Multi-targeting protein-protein interaction inhibitors: Evolution of macrocyclic ligands with embedded carbohydrates (MECs) to improve selectivity” (Eur J Med Chem, 2019) come the findings set out here.

Each structure is given as a SMILES string. Where only a bound is given, the exact number is not on record here.

In general, IC50 refers to the midpoint of a concentration-inhibition curve. By Ki is commonly meant a dissociation constant, usually derived from enzyme kinetics or from competition with a known ligand.

Assay [1] addresses 5-hydroxytryptamine receptor 2B (Homo sapiens, UniProt P41595). Briefly: Antagonist activity at human recombinant 5-HT2B receptor in CHOK1 cells measured after 30 mins by HTRF assay. It counts as cell-based. In general terms: TR-FRET usually uses a lanthanide donor and a delayed reading to cut background.
The target of another assay is T1, Substance-K receptor (Homo sapiens, UniProt P21452).
T1 sequence (P21452 whole entry): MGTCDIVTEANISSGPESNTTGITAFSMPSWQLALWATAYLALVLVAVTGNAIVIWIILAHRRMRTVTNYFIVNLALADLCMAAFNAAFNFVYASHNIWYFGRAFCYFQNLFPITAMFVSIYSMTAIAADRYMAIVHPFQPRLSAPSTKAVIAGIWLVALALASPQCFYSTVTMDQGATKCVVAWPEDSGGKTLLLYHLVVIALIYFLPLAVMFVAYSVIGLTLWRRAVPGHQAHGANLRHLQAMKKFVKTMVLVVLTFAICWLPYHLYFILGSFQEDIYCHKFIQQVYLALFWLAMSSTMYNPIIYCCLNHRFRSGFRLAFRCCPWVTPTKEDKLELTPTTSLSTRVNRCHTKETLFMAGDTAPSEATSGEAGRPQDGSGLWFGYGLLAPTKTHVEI
Briefly: Displacement of [125I]NKA from human recombinant NK2 receptor measured after 60 mins by scintillation counter method. For orientation: In a radioligand displacement assay an active substance lowers the binding of a labelled ligand.

Assay [2] deals with T2, 5-hydroxytryptamine receptor 1A (Homo sapiens, UniProt P08908).
T2 sequence (P08908 whole entry): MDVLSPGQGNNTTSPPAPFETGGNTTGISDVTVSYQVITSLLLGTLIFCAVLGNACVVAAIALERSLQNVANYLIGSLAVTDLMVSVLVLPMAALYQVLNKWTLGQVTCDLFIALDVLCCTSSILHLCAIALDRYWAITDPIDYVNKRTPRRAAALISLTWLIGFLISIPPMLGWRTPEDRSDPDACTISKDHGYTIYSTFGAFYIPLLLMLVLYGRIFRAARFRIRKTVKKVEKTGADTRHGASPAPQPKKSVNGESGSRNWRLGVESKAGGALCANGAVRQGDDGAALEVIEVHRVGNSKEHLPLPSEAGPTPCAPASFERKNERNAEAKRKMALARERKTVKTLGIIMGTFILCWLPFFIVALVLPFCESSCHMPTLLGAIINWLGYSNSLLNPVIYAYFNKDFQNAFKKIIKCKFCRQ
Briefly: Displacement of [3H]OH-DPAT from human recombinant 5-HT1A receptor measured after 60 mins by scintillation counter method.

Assay [3] deals with 5-hydroxytryptamine receptor 2A (Homo sapiens, UniProt P28223). Description: Displacement of [3H] ketanserin from human recombinant 5-HT2A receptor measured after 60 mins by scintillation counter method.
Assay [4] in a line: Displacement of [3H] batrachotoxinin from rat sodium channel site 2 measured after 60 mins by scintillation counter method.
For assay [5], the target named is Sodium-dependent serotonin transporter (Homo sapiens, UniProt P31645). Description: Displacement of [3H] imipramine from human recombinant 5-HT transporter measured after 60 mins by scintillation counter method.
Chain of Sodium-dependent serotonin transporter (P31645 whole entry): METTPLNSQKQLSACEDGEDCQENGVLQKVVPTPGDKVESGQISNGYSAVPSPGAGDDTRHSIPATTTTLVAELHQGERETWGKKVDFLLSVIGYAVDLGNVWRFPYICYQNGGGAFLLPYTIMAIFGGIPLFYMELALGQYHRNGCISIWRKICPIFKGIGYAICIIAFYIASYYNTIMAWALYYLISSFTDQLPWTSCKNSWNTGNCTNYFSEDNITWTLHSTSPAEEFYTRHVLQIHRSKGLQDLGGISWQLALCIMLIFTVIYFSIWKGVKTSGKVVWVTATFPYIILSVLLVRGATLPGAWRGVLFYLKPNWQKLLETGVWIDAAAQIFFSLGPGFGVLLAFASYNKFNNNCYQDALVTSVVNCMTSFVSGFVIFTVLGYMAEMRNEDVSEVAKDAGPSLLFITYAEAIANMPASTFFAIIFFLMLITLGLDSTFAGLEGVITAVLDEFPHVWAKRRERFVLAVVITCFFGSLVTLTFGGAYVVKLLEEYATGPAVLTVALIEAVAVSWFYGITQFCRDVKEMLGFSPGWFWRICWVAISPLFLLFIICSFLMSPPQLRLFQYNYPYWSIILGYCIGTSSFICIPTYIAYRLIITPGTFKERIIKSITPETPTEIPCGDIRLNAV

Chain of 5-hydroxytryptamine receptor 2B (P41595 whole entry): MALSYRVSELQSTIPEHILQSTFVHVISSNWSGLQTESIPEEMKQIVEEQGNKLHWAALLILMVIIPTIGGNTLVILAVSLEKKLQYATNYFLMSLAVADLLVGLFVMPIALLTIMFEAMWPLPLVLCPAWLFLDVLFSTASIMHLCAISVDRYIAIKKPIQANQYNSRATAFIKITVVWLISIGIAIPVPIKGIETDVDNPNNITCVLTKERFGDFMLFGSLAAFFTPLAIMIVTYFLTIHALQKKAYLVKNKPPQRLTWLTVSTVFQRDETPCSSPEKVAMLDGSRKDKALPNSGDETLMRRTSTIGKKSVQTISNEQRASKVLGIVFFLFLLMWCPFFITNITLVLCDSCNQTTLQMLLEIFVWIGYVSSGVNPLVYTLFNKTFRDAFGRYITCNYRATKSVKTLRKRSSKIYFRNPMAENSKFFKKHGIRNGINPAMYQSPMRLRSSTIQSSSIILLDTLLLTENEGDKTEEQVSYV
Chain of 5-hydroxytryptamine receptor 2A (P28223 whole entry): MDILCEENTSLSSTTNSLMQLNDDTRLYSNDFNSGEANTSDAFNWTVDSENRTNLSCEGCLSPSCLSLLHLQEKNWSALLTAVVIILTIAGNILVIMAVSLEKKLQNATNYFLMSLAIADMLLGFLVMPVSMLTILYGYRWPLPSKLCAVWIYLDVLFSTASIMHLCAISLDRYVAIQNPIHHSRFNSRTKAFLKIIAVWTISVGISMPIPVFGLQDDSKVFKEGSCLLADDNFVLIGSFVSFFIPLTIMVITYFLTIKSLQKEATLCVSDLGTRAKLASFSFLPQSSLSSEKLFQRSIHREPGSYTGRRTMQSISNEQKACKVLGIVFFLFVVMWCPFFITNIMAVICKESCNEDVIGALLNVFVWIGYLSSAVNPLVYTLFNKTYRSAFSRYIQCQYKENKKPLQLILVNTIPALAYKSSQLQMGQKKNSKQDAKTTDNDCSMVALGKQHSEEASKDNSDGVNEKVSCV

For `CN1C[C@@H](NS(=O)(=O)N(C)C)C[C@@H]2c3cccc4c3c(cn4C)C[C@H]21` [MESULERGINE], in assay [1], the IC50 was determined as 0.0052 µM and the Ki is 0.0028 µM.
Consider `CC(C)CCO[C@@H]1[C@H]2OC(C)(C)O[C@H]2[C@H]2COCc3cn(nn3)C[C@H]3O[C@H](CCN(CCc4ccc5ccccc5c4)CC[C@H]1O2)[C@H](OCCC(C)C)[C@H]1OC(C)(C)O[C@H]13`, for which the IC50 on Substance-K receptor was 3 µM; in assay [2] it was 0.68 µM; in assay [3], 8.7 µM; in assay [1] it was 15 µM; in assay [4], 0.46 µM; in assay [5], > 100 µM. Further, the Ki at Substance-K receptor was 1.6 µM; in assay [2] it was 0.42 µM; in assay [3] it was 4.7 µM; in assay [1], 8.2 µM; in assay [4], 0.41 µM; in assay [5] it was > 100 µM.
In assay [4], `COc1ccc(C(=O)O[C@H]2CC[C@@]3(C)[C@@H]4CC[C@H]5[C@]6(O)C[C@H](O)[C@@]7(O)[C@@H](CN8C[C@@H](C)CC[C@H]8[C@@]7(C)O)[C@]6(O)C[C@@]53O[C@]24O)cc1OC` [VERATRIDINE] registered an IC50 of 8.9 µM and a Ki of 8.1 µM.
